Patent US9150575B2, “Piperidinylpyrazolopyridine derivative” (Daiichi Sankyo Company, Limited, priority 2012, dated 2015)

What was measured:
LCAT = target: T1, LCAT (Homo sapiens, UniProt P04180); assay: LCAT Activity Measurement (In Vitro); type: biochemical; details: EC50 of LCAT activation; HDL3 fraction from plasma of a healthy person as enzyme source and acceptor; [14C]cholesterol; 37° C., approximately 16 hours
T1 construct: The obtained fraction was dialyzed against phosphate-buffered saline (pH 7.4) and used as an enzyme source and an acceptor for LCAT; from tissue; host or cells: HDL3 fraction (1.125<specific gravity<1.210 g/mL) of plasma from a healthy person
T1 sequence (P04180 25-440): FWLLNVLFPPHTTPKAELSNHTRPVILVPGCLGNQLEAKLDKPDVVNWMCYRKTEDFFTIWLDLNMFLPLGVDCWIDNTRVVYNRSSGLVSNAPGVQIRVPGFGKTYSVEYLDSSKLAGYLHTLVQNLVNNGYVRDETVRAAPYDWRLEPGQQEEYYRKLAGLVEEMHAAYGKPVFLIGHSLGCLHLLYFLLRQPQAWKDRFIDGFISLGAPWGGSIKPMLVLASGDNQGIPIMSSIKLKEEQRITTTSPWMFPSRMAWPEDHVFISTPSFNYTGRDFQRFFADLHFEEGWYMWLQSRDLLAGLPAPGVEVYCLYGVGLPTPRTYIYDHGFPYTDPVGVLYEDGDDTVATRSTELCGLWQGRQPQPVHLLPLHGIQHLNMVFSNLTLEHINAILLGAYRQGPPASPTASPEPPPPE
Method in brief: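 Human plasma HDL3 (1 mg/mL, PBS pH 7.4) served as enzyme and acceptor with [14C]cholesterol, 0.5 mM DTNB, 12.5 mM mercaptoethanol and 0.6% BSA; compounds in DMSO, incubated ~16 h at 37 °C. Cholesterol oleate radioactivity quantified after extraction and TLC; EC50 of activation fitted relative to no-drug control.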

cynomolgus monkey = assay: Drug Efficacy Test in Cynomolgus Monkeys; type: in vivo; details: oral, single dose of 10 mg/kg, compared with before administration, from AUC before administration and 24 hours after administration
Protocol: Each test drug was dissolved in a propylene glycol (Sigma-Aldrich Corp.)-Tween 80 (Sigma-Aldrich Corp.) mixed solution [4/1 (v/v)] or a 0.5% (w/v) methylcellulose aqueous solution, and the solution was orally administered to a cynomolgus monkey for 1 or 7 days. At 1 or 7 day of administration period, blood was collected before administration and after administration, and plasma was obtained. The content of cholesterol in the plasma was measured using a commercially available assay kit (Cholesterol-E Wako, Wako Pure Chemical Industries, Ltd.). The lipoprotein profile was analyzed by HPLC (column: LipopropakXL, manufactured by Tosoh Corp.). The contents of HDL cholesterol and non-HDL cholesterol were calculated according to the following calculation expression: Content of HDL cholesterol=Content of cholesterol in the plasma×(Peak area of HDL cholesterol/Total sum of peaks) Content of non-HDL cholesterol=Content of cholesterol in the plasma×(Peak area of non-HDL cholesterol/Total sum of peaks)
The rate (%) of increase in HDL level after the administration of a single dose of 10 mg/kg compared with before administration was determined from AUC before administration and 24 hours after administration.

| Structure (SMILES) | EC50 (LCAT) | Rate of increase in HDL level after administration of single dose (cynomolgus monkey) |
| --- | --- | --- |
| O=C1CC(O)(C(F)(F)F)c2c(C3CCN(c4cccc(C(F)(F)F)n4)CC3)n[nH]c2N1 (stereo not shown) [Example 7, 4-Hydroxy-4-(trifluoromethyl)-3-{1-[6-(trifluoromethyl)pyridin-2-yl]piperidin-4-yl}-1,4,5,7-tetrahydro-6H-pyrazolo[3,4-b]pyridin-6-one] | 48 nM | 334% |
| O=C1CC(O)(C(F)(F)F)c2c(C3CCN(c4ccc(OC(F)F)cc4)CC3)n[nH]c2N1 (single isomer, unassigned; (-)) [Compound 56-1, (−)-3-{1-[4-(Difluoromethoxy)phenyl]piperidin-4-yl}-4-hydroxy-4-(trifluoromethyl)-1,4,5,7-tetrahydro-6H-pyrazolo[3,4-b]pyridin-6-one] | 45 nM | 644% |
